Measurements published in patent US9375457B2, “Composition comprising Rhizoma coptidis, Cortex phellodendri and Fructus gardeniae and for treating neurodegenerative diseases” (Hong Kong Baptist University, priority 2013, dated 2016).

Experiments:
TgCRND8 mice = assay: Tolerability of chronic oral administration in TgCRND8 mice; type: in vivo; conditions: 25 mg/kg per day, nearly 3 months
From the text: All animal handling experiments were approved by the Hong Kong Baptist University Committee on the Use of Human and Animal Subjects in Teaching and Research (HASC, approval #: 12-13/0030). TgCRND8 mice expressing human APP with Swedish (K670N/M671L) and Indiana (V717F) mutations were used to evaluate the effect of baicalein on Aβ. Heterozygous TgCRND8 mice on a C57BL/6J background were used to breed a colony of experimental animals. The TgCRND8 mouse is an early onset model of AD with visible Aβ deposits in the brains of the animals starting from 3 months of age as described in Chishti M A, Yang D S, Janus C, Phinney A L, Home P, Pearson J, Strome R, Zuker N, Loukides J, French J, Turner S, Lozza G, Grilli M, Kunicki S, Morissette C, Paquette J, Gervais F, Bergeron C, Fraser P E, Carlson G A, George-Hyslop P S, Westaway D. (2001) Early-onset amyloid deposition and cognitive deficits in transgenic mice expressing a double mutant form of amyloid precursor protein 695. J Biol Chem 276: 21562-21570. The animals are housed in a controlled environment under a 12/12 hours light/dark cycle. They are allowed free access to food and water. The oral administration of baicalein (25 mg/kg/d) is commenced at 2 months of age and ended at 5 months before being killed. […]

[1] = Baicalein concentration in brain of TgCRND8 mice; type: in vivo
[2] = test system: APP processing (F1-APP, pAPPThr668, CTFs, sAPPα, sAPPβ-sw) in N2a-SwedAPP cells; assay: Western blot of APP metabolic products in N2a-SwedAPP cells; type: cell-based, murine; design: key to Fl-APP (overall influence) / CTFs (overall influence) / sAPPα (overall influence) / sAPPβ (overall influence): ↓ decreased; ↑ increased; ? unchanged
Procedure: N2a-SwedAPP cells were obtained from Dr. Gopal Thinakaran (University of Chicago, Chicago, Ill., USA). N2a-SwedAPP cells were cultured in Dulbecco's modified Eagle's medium (DMEM) and OPTI-MEM medium in a 1:1 ratio with 5% FBS, 50 μg/mL penicillin, 50 μg/mL streptomycin and 200 μg/mL G418 as previously described in Thinakaran G, Teplow D B, Siman R, Greenberg B, Sisodia S S (1996) Metabolism of the “Swedish” amyloid precursor protein variant in neuro2a (N2a) cells. J Biol Chem 271: 9390-9397. N2a-SwedAPP cells were incubated at 37° C. in a 5% CO2/95% humidity incubator. Cells were seeded 24 hours prior to the treatments. When growth reached close to 90% of confluence, cells were transferred into DMEM with 1% FBS for loading extracts. The final concentration of DMSO in all experiments was 0.1%, and this concentration caused no cytotoxicity.
To detect the levels of APP metabolic products, the cell lysates and the conditioned media were prepared as described in Durairajan S S K, Liu L F, Lu J H, Koo I, Maruyama K, Chung S K, Huang J D, Li M. (2011) Stimulation of non-amyloidogenic processing of amyloid-β protein precursor by cryptotanshinone involves activation and translocation of ADAM10 and PKC-α. J Alzheimer's Dis 25: 245-262, with minor modification. N2a-SwedAPP cells were seeded at a density of 4×10^5/mL in DMEM medium in a 6-well plate and cultured for 1 day. After transfer, cells were treated with different doses of RC, CP, FG and RS for 48 hours, then the extracellular media were collected for detection of sAPPα and sAPPβ-sw, and cells were harvested to quantify F1-APP and β-actin by Western blot analysis, as described previously by Durairajan et al. For intracellular APP, APP-CTFs and Aβ preparation, cells were washed with ice-cold PBS twice and solubilized in ice-cold RIPA buffer with protease inhibitor cocktail added. Lysates were collected and centrifuged at 16,000×g for 15 minutes at 4° C. The resulting supernatants were collected, and their protein concentrations were determined with bicinchoninic acid (BCA) protein assay reagent (Thermo Scientific, IL, USA). For sAPPα and sAPPβ-sw detection, the conditioned media are collected and frozen in liquid nitrogen, subjected to lyophilization at −40° C. under vacuum of 105 μbar for 2 days in order to remove all liquid. The conditioned media were standardized to total cell lysate protein.
For Western blot analysis from cell culture or mouse brain, 10-30 μg total protein is separated on 10% and 15% SDS-PAGE gels and blotted onto PVDF membranes for the detection of full length APP (F1-APP), CTFs, sAPPα, sAPPβ-sw, 3-actin and phosphorylated APP (pAPPThr668). After blocking with 5% skimmed milk, the blots are incubated with primary antibodies overnight at 4° C. with shaking. Blots are washed and incubated with HRP-conjugated secondary antibodies. The goat anti-mouse IgG is used when the primary antibody is 6E10 (1:1000), sAPPβ-sw (1:100), or anti-β-actin (1:5000), and the goat anti-rabbit IgG is used when the primary antibody is anti-CT15 (1:5000) or pAPPThr668 (1:1000). After incubation with HRP-conjugated secondary antibody, immunoblots are treated with ECL and developed using X-ray films (Fujifilm). Films are scanned, and the band intensity is analyzed using Image J software (NIH Image).
Stripped CT15 and 6E10 probed membranes are reincubated with pAPPThr668 and sAPPβ-sw 6A1 antibodies, respectively.
Western blotting of N2a-SwedAPP cells is used to test differences in the processing of Swedish mutant APP by HLJDT components. Several antibodies are used in Western blot analysis: CT15 recognizes full length APP (F1-APP), 6E10 identifies only α-secretase-cleaved APP i.e sAPPα, and the sAPPβ-sw specific for β-secretase cleavage of Swedish mutant APP.

[3] = test system: intracellular Aβ1-40 and Aβ1-42 in N2a-SwedAPP cells; assay: Sandwich ELISA of intracellular Aβ in N2a-SwedAPP cells; type: cell-based, murine; design: key to Aβs (overall influence): ↓ decreased; ↑ increased; ? unchanged
Procedure: N2a-SwedAPP cells were seeded at a density of 4×10^5/mL in DMEM medium in a 6-well plate and cultured for 1 day. After transfer, cells were treated with different doses of RC, CP, FG and RS for 48 hours, then the extracellular media were collected for detection of sAPPα and sAPPβ-sw, and cells were harvested to quantify F1-APP and β-actin by Western blot analysis, as described previously by Durairajan et al. For intracellular APP, APP-CTFs and Aβ preparation, cells were washed with ice-cold PBS twice and solubilized in ice-cold RIPA buffer with protease inhibitor cocktail added. Lysates were collected and centrifuged at 16,000×g for 15 minutes at 4° C. The resulting supernatants were collected, and their protein concentrations were determined with bicinchoninic acid (BCA) protein assay reagent (Thermo Scientific, IL, USA). […] The conditioned media were standardized to total cell lysate protein.
The levels of intracellular Aβ1-40 and Aβ1-42 are quantified by using a sandwich ELISA as previously described by Durairajan et al., 2011 with minor modification. Equal amounts of cell or brain lysates are used for Aβ quantification by sandwich ELISA. The monoclonal antibody 6E10 is used as the capture antibody by adding to ELISA plates (0.2 μg diluted in 0.1 M Na2CO3 (pH 9.6) per well) and incubated overnight at 4° C. The plates are washed with PBS (0.05% Tween 20) and blocked with 4% BlockAce (Serotec, Raleigh, N.C., USA) for 2 hours at room temperature. Equilibrated protein lysates from each treatment (a 100 μL volume is adjusted in all treatment groups by using PBS) are applied in duplicate and incubated at room temperature for 2 hours with constant rotation at 30 rpm. Biotinylated monoclonal anti-Aβ40 5C3 (50 ng per well) and biotinylated monoclonal 8G7 (50 ng per well) antibodies are used for detection of Aβ1-40 and Aβ1-42, respectively, and are diluted in 1% BlockAce and incubated for 2 hours at room temperature. Plates are thoroughly washed with PBS (0.05% Tween 20), and streptavidin conjugated HRP is added for 1 hour at room temperature. Finally the plates are washed four times with PBST before adding the substrate TMB for 30 minutes. Absorbance at 450 nm is measured in duplicate wells after addition of 2 M H2SO4. All ELISA experimental data are from three different days. Synthetic Aβ40 and Aβ42 peptides are used for construction of calibration curves, and Aβ is measured in lysates.

O=c1cc(-c2ccccc2)oc2cc(O)c(O)c(O)c12 [baicalein]
adverse side effects (TgCRND8 mice): nor did it cause any notable adverse side effects
change of animal body weight (TgCRND8 mice): did not significantly change
mean concentration of baicalein in the brain ([1]; TgCRND8 mice, orally administered 25 mg/kg): 120 ± 10 ng/mL
difference in baicalein levels in the brain between doses ([1]; mouse, in vivo): no difference
maximal increase of CTFs, fold of basal release ([2]; 12.5 μM, 48 hours): 2.36 fold
maximal increase of F1-APP, fold of basal release ([2]; 12.5 μM, 48 hours): 1.68 fold
maximal increase of pAPPThr668, fold of basal release ([2]; 12.5 μM, 48 hours): 1.58 fold
maximal secretion of sAPPα, fold of basal release ([2]; 12.5 μM, 48 hours): 2.65 fold
maximal secretion of sAPPβ-sw, fold of basal release ([2]; 12.5 μM, 48 hours): 1.70 fold
CTFs (overall influence) ([2]; N2a-SwedAPP cells): ↑
Fl-APP (overall influence) ([2]; N2a-SwedAPP cells): ↑
sAPPα (overall influence) ([2]; N2a-SwedAPP cells): ↑
sAPPβ (overall influence) ([2]; N2a-SwedAPP cells): ↑
augmentation of intracellular Aβ1-40, fold of basal level ([3]; 12.5 μM, 48 h): 1.23 fold
augmentation of intracellular Aβ1-42, fold of basal level ([3]; 12.5 μM, 48 h): 1.38 fold
Aβs (overall influence) ([3]; N2a-SwedAPP cells): ↑
